Measured values reported in PMC2972649 (Journal of Medicinal Chemistry, 2010).

Assays:
Nek2 = molecular target: T1, Nek2 (Homo sapiens, UniProt P51955); assay type: biochemical; conditions: for fold improvement in Nek2 potency on substitution of the thiophene: comparator not given
T1 sequence (P51955 1-445): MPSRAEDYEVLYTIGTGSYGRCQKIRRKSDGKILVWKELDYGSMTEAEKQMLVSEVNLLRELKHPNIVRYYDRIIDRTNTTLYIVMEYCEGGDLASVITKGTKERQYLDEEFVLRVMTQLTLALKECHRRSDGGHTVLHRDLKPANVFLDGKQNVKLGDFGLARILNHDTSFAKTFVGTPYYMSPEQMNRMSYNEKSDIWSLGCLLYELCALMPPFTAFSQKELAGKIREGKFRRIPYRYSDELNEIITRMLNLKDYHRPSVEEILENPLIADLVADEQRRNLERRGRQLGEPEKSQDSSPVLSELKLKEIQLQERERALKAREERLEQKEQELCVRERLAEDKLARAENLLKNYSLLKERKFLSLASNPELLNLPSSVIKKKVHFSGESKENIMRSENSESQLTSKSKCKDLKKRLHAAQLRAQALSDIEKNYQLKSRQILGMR

Nek1 = molecular target: T2, Nek1 (Homo sapiens, UniProt Q96PY6); assay: Nek1 Caliper kinase assay; assay type: biochemical; conditions: Nek2 versus Nek1
T2 sequence (Q96PY6 1-505 limits assumed): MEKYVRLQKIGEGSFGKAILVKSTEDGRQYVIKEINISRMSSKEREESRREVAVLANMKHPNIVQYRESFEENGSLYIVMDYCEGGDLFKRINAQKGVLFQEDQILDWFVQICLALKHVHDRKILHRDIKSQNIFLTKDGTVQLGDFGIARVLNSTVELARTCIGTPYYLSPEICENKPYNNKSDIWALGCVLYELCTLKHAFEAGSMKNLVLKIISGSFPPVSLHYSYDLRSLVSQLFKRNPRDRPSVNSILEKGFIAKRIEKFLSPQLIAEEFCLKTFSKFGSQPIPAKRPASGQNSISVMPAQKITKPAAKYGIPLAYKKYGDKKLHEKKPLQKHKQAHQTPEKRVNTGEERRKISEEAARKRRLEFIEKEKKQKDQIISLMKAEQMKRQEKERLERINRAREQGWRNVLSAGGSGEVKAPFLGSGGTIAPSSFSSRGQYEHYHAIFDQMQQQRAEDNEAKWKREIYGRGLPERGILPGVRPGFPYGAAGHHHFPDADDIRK

| SMILES | fold loss of Nek2 potency compared to hit 2 (Nek2) | fold improvement in Nek2 potency on substitution of the thiophene (Nek2) | selectivity against Nek1 (Nek1) |
| --- | --- | --- | --- |
| Nc1nccnc1N1CCC(C(=O)O)CC1 [Compound 8] | approximately 50 fold |  |  |
| COc1cccc(-c2cnc(N)c(N3CCC(C(=O)O)CC3)n2)c1 [Compound 5] | 4-5 fold |  |  |
| Nc1ncc(-c2sccc2C2CC2)nc1N1CCC(C(=O)O)CC1 [Compound 36] |  | approximately 4 fold |  |
| CCc1ccsc1-c1cnc(N)c(N2CCC(C(=O)O)CC2)n1 [Compound 35] |  | approximately 4 fold | approximately 10 fold |
| COc1cc(-c2cnc(N)c(N3CC[C@H](C(=O)O)[C@H](C)C3)n2)cc(OC)c1OC [Compound 20, (−)-(3S,4S)-1-(3-Amino-6-(3,4,5-trimethoxyphenyl)pyrazin-2-yl)-3-methylpiperidine-4-carboxylic Acid] | 10 |  |  |
